115 compounds from the OPERA property sets (Mansouri et al. 2018) can be followed below.

Usually logP stands for the decadic logarithm of the partition coefficient of the neutral form, usually between octanol and water. Low values mean lower lipophilicity, high ones higher lipophilicity.

In turn, `CNc1cnn(-c2ccccc2)c(=O)c1Cl` came in with a logP of 1.19.
Under `O=C(O)Cn1nnc2ccccc21` stands -1.88.
For `CON1C(=O)CC2(CCCC2)C1=O`, the logP was 1.15.
As for `Cc1ncc([N+](=O)[O-])n1CCOC(N)=O`, the figure is -0.29.
Compound `Cn1c(S)nnc(-c2ccc(OC(F)(F)F)c(Cl)c2)c1=O` returned a log partition coefficient (logP) of 3.61.
`COCC(=O)Cn1ccnc1[N+](=O)[O-]`: the logP was -0.26.
As for `CCC(CC)COC(N)=O`, the logP came out at 1.98.
Compound `CCNc1nc(C)c(C(=O)CCN(CC)CC)s1` returned a logP of 2.72.
As for `COC(=O)c1cnc2n(c1=O)C(C)CCC2` (stereo not given), the figure is 0.16; as for `C=C1C(=O)OC2CC3=CC(CC4(C)OC4C(O)C12)OC3=O` (stereo not given), -0.64; as for `Cc1cccc2nc3n(c(=O)c12)CCC3`, 1.59.
The compound `Cc1nc(N)sc1C(=O)CCN1CCCCC1` gave a logP of 2.13.
`CC(C)c1ccc(OCC(OC(=S)n2ccnc2)C(C)(C)C)cc1` (stereo not given): the logP was 5.21.
The compound `COC(=O)NC1=NCC(c2ccccc2F)N1C` (stereo not given) showed a logP of 1.53.
`O=c1[nH]c(=O)n(Cc2ccccc2)cc1F`: the logP was 0.89.
`O=[N+]([O-])c1ccc(Oc2ccc(Cl)cc2Cl)cc1` gave a logP of 4.64.
The compound `CC(C)c1ncc([N+](=O)[O-])[nH]1` showed a logP of 0.9.
In turn, `NS(=O)(=O)c1cc2c(cc1F)N=CNS2(=O)=O` registered a lipophilicity (logP) of -0.29.
As for `CCC(C(=O)OCc1ccc(C)cc1)C(CO)Cc1cncn1C` (stereo not given), the figure is 2.46.
`Cc1ccc(Cc2cnc(NCCCCc3ncc(Br)cc3C)[nH]c2=O)cn1` had a log partition coefficient (logP) of 3.57.
For `CCOC(=O)Nc1ccc2c(c1)N(C(=O)CCN1CCOCC1)c1ccccc1S2`, the logP is 2.98.
As for `OC(Cn1ccnc1)(c1ccc(F)cc1)c1ccc(F)cc1`, the figure is 2.95; as for `CC(=O)Nc1ccc2c(c1)S(=O)(=O)c1ccc(C)cc1C2=O`, 2.76; as for `CCOC(=O)c1cnc2n(c1=O)CC(C)CC2` (stereo not given), 0.71.
With `COC(=O)NC1=NCC(c2cccc(Cl)c2)N1C` (stereo not given), the logP was 2.1.
In turn, `CCCCCCOc1ccc(CC(=O)O)cc1` registered a logP of 3.96.
`CC(C)(C)C(COc1ccc(Cl)cc1)OC(=O)n1ccnc1` (stereo not given) displayed a logP of 4.19.
`O=[N+]([O-])c1ccccc1O[C@@H]1O[C@H](CO)[C@@H](O)[C@H](O)[C@H]1O` registered a logP of -0.78.
Consider `CN(Cc1ccccc1)C(=O)C(Cc1ccccc1)NC(=O)C(Cc1cn(C(=O)OC(C)(C)C)c2ccccc12)NC(=O)CC1NC(=O)C2C3CCC(CC3)N2C1=O` (stereo not given), for which the logP turned out to be 5.33.
`O=C(c1c(F)c(F)c(F)c(F)c1F)c1ccc2n1CCC2C(=O)O` (stereo not given) yielded a logP of 3.24.
As for `O=C1CN=C(c2ccccc2F)c2cc(Cl)ccc2N1CC(F)(F)F`, the logP came to 3.36.
In turn, `COC(=O)c1ccccc1S(=O)(=O)NC(=O)Nc1nc(C)nc(OC)n1` displayed a logP of 2.2.
Under `COC(=O)NC1=NCC(c2ccccc2)N1C` (stereo not given) stands 1.57; under `Nc1ccc(S(=O)(=O)N2C(=O)NC(=O)C2(c2ccccc2)c2ccccc2)cc1`, 3.27; under `OCC1OC(O)C(O)C(O)C1O` (stereo not given), -3.24.
As for `O=C(OCC1OC(n2cc(I)c(=O)[nH]c2=O)CC1O)c1ccc([N+](=O)[O-])cc1` (stereo not given), the figure is 1.24; as for `CC(O)Cn1cnc2c1c(=O)n(C)c(=O)n2C` (stereo not given), -0.77.
Compound `CC(=O)OCC1=C(C(=O)O)N2C(=O)C(NC(=O)Cc3cc4ccccc4s3)C2SC1` (stereo not given) returned a logP of 1.68.
Take `CC(=O)Nc1cc(C(C)(C)C)c(O)cc1C`: the logP turned out to be 2.18.
With `Nc1cc(Cl)c(Cl)cc1Cl`, the logP amounted to 3.45.
As for `C=C1C(=O)OC2C1C(O)CC(C)C1CCC(=O)C12C` (stereo not given), the figure is 0.23; as for `CCOP(=O)(OCC)Oc1ccc([N+](=O)[O-])cc1`, 1.98.
For `CC(C)Cc1ccc(CC(=O)O)cc1`, the logP was determined as 3.35.
`NC1C2CCC1c1cccc(C(F)(F)F)c1C2` (stereo not given) came in with a logP of 3.65.
As for `CCCCCCN(C)C(=O)c1cccc(Oc2ccccc2)c1`, the lipophilicity (logP) is 5.01.
`CCOC(=O)c1cnc2n(c1=O)CCC(C)C2` (stereo not given): the logP came to 0.66.
The compound `CCN(CC)C(=O)Nc1ccc(OCC(O)CNC(C)(C)C)c(C(C)=O)c1` (stereo not given) had a lipophilicity (logP) of 1.92.
For `CC1=C(C(=O)O)N2C(=O)C(NC(NC(=O)c3nn(-c4ccccc4)c(=O)[nH]c3=O)c3ccc(O)cc3)C2SC1` (stereo not given), the logP came to 1.26.
In turn, `O=C(O)CCc1ccc(OCc2ccccc2)cc1` registered a lipophilicity (logP) of 3.31.
With `CCCN1CCOC2c3cc(O)ccc3OCC21` (stereo not given), the logP stood at 1.97.
With `CCCCC(=O)CC(=O)CCCC`, the logP is 3.56.
`N#Cc1ccc(Cl)cc1`: the logP was determined as 2.47.
With `Nc1c(Cl)cc(Cl)cc1Cl`, the logP is 3.52.
On to `CCCCCCC(=O)O`, for which the logP is 2.42.
Compound `CNC(=O)N1C(=O)CN=C(c2ccccc2)c2cc([N+](=O)[O-])ccc21` showed a logP of 1.76.
Under `ClC(Br)Br` stands 2.16; under `COC(=O)NC1=NCC(c2ccc(C(C)C)cc2)N1` (stereo not given), 2.6; under `CNC12CCCCC1CCc1ccc(OC)cc12` (stereo not given), 3.75.
`NCCc1cn2ccccc2n1` displayed a logP of 0.59.
In the case of `CC(C(=O)O)N(C(=O)c1ccccc1)c1ccc(F)c(Cl)c1` (stereo not given), the logP was 2.9.
For `CN(c1ccccc1)S(C)(=O)=O`, the lipophilicity (logP) was determined as 1.02.
Consider `CCCCCCCC(=O)N[C@@H]1C(=O)N2[C@@H]1SC(C)(C)[C@@H]2C(=O)O`, for which the lipophilicity (logP) stood at 3.32.
Under `CC(C)c1ccc(C2C(=O)c3ccccc3C2=O)cc1` stands 4.43; under `Cc1cc(C)c(C)c(C)c1`, 4.1; under `CCCCCCCCO[C@@H]1O[C@H](CO)[C@H](O)[C@H](O)[C@H]1O`, 1.46.
Compound `O=C1c2ccccc2C(=O)C1c1ccc(C(F)(F)F)cc1` had a logP of 3.78.
In turn, `CC(CF)NCC(O)COc1cccc2[nH]c3ccccc3c12` (stereo not given) had a logP of 2.81.
On to `COc1cc(S(C)=O)ccc1-c1nc2ncc(N)cc2[nH]1` (stereo not given), for which the logP amounted to 0.33.
`C=C[C@H]1CN2CCC1C[C@@H]2[C@@H](O)c1ccnc2ccccc12` (stereo not given in full) registered a logP of 2.68.
Turning to `CCCCCCC(=O)N(C)c1ccc(S(=O)(=O)N(C)C)cc1`, the logP was determined as 2.61.
With `CN(C)[C@@H]1C(O)=C(C(N)=O)C(=O)[C@@]2(O)C(O)=C3C(=O)c4c(O)cccc4[C@@](C)(O)[C@H]3[C@H](O)[C@@H]12`, the logP is -0.9.
Regarding `O=C(O)COc1ccccc1[N+](=O)[O-]`, the logP came out at 1.13.
`CCc1cc2n(c1C(=O)c1ccc(F)cc1)CCC2C(=O)O` (stereo not given) registered a logP of 3.63.
As to `COc1ccc2c(=O)c(C)c(-c3ccccc3)oc2c1CN(C)C`, the logP was found to be 3.65.
In turn, `CCOP(=O)(OCC)SCS(=O)(=O)C(C)(C)C` yielded a log partition coefficient (logP) of 2.76.
Consider `COc1c(O)ccc(O)c1OC`, for which the logP was determined as 0.61.
As for `CNC(=O)c1cccc(Oc2cc(C)ccc2C)c1`, the figure is 3.76; as for `CC1c2nc3ccccc3c(=O)n2CN1C` (stereo not given), 0.85.
The compound `CC(=O)OC(CNC(C)C)COc1cccc2ccccc12` (stereo not given) returned a log partition coefficient (logP) of 4.34.
`CC(C)(C)c1ccc(C2CCCC(O)C2)c(O)c1` (stereo not given) displayed a logP of 4.05.
Turning to `C[C@@H]1O[C@@H](O[C@H]2C[C@@H](O)[C@]3(CO)[C@H]4[C@H](O)C[C@]5(C)[C@@H](C6=CC(=O)OC6)CC[C@]5(O)[C@@H]4CC[C@]3(O)C2)[C@H](O)[C@H](O)[C@H]1O`, the logP was -2.
As for `NC(=S)NNCc1ccc2c(c1)OCO2`, the logP is 0.14.
For `CC(C)NC(=N)NC(=N)Nc1ccc(Cl)cc1`, the logP worked out at 2.53.
As for `CCCCN1Cn2c(nc3ccccc3c2=O)C1C` (stereo not given), the logP worked out at 1.6.
Turning to `Nn1c(S)nnc(-c2cc(Cl)cc(Cl)c2)c1=O`, the logP amounted to 2.67.
In turn, `CC(n1ccnc1)C(O)(c1ccc(F)cc1)c1ccc(F)cc1` (stereo not given) returned a logP of 3.13.
For `CCC(CC)(C(=O)NC(N)=S)C(=O)OC`, the logP is 1.82.
As for `CCOP(=O)(OCC)SCS(=O)C(C)(C)C` (stereo not given), the figure is 2.66; as for `CCCCCC(C)N` (stereo not given), 2.4; as for `Clc1ccc(-c2c(Cl)ccc(Cl)c2Cl)cc1Cl`, 6.22.
`CNC(=O)Oc1cc(C)ccc1C(C)C` returned a logP of 2.84.
For `CCCCCCCO`, the logP was found to be 2.62.
Under `Cc1ccc(C)c(Oc2cccc(C(=O)NC(C)C)c2)c1` stands 4.35.
Turning to `Cc1ccc(C(N)=S)cc1`, the logP turned out to be 2.01.
`CCNP(=O)(OCC)ON=C(C#N)c1ccc(OC)cc1` (stereo not given) returned a logP of 2.39.
Under `CCN(CC)c1cccc(S(=O)(=O)[O-])c1.[Na+]` stands -1.6; under `OC(Cn1ccnc1)(c1ccccc1)c1ccc(Br)cc1` (stereo not given), 3.35.
`CC(N)C(=O)O` (stereo not given) returned a lipophilicity (logP) of -2.85.
As for `CC(C)(C)C(COc1ccc(Br)cc1)OC(=S)n1ccnc1` (stereo not given), the figure is 5.11; as for `CNc1nnc(-c2cc(Cl)cc(Cl)c2)c(=O)n1N`, 1.91.
As for `CC(=O)n1cc(CC(NC(=O)CC2NC(=O)C3C4CCC(CC4)N3C2=O)C(=O)NC(Cc2ccccc2)C(=O)N(C)Cc2ccccc2)c2ccccc21` (stereo not given), the logP was found to be 3.69.
Under `CCCCCCNC(=O)n1cc(F)c(=O)[nH]c1=O` stands 2.63; under `NS(=O)(=O)c1cc2c(cc1[N+](=O)[O-])N=CNS2(=O)=O`, 0.08; under `CSc1ccc(OCc2ncc([N+](=O)[O-])n2C)cc1`, 2.5.
Under `Clc1cccc(Cl)c1Cl` stands 4.05; under `CC(C)c1ccc(N)cc1`, 2.49; under `COc1ccc(C(=O)CCCC(=O)O)cc1`, 1.63.
On to `CC(=O)NN1CC=CCC1`, for which the logP came to 0.52.
`C=CCC(CC=C)(C(=O)NC(N)=O)C(=O)OC` registered a logP of 1.37.
On to `Cc1ccc(CC#N)cc1`, for which the logP is 1.67.
As for `CCCCCN(C)C(=O)c1cccc(Oc2ccccc2)c1`, the figure is 4.43; as for `CNC(=O)NCCCCn1nc(-c2ccccc2)ccc1=O`, 1.23.
Take `CC1(C)S[C@@H]2[C@H](NC(=O)[C@H](N)c3ccc(O)cc3)C(=O)N2[C@H]1C(=O)O`: the logP is 0.87.
As for `CCCCSc1nnc(C(C)C)c(=O)n1N`, the figure is 3.21; as for `OC[C@@H](O)[C@@H](O)[C@H](O)[C@@H](O)CO`, -2.2.
